Experimental data reported in patent publication US20260166128A1, “HUMAN AMYLIN ANALOG, AND DERIVATIVE THEREOF AND USE THEREOF” (priority 2022, published 2026).
Numbered stars: 1 amine (or outer) side, 2 acyl side, 3 side chain; on linkers, the order of the positions; unused ones are H or OH. Bridge positions count the residues as written; N and C are the ends. Square brackets hold non-standard residues; d marks the D form. Side chains are listed from the residue outwards. Peptide text beside a SMILES is read from it. * marks the point of attachment. C20 diacid = O=C(O)CCCCCCCCCCCCCCCCCCC(=O)*; C18 diacid = O=C(O)CCCCCCCCCCCCCCCCC(=O)*; γGlu = O=C(O)[C@H](CCC(=O)[*:2])N[*:1]; Hyp = O=C(O)[C@@H]1C[C@@H](O)CN1; Dab = NCC[C@H](N)C(=O)O; AEEA = NCCOCCOCC(=O)O

Molecular target: T1, human amylin receptor (Homo sapiens, UniProt O60896+P30988)
T1 construct: host or cells: CHO-K1/Ga15/AMY3 cells, further stably transfected with a CRE-luciferase plasmid
T1 sequence (P30988 25-474): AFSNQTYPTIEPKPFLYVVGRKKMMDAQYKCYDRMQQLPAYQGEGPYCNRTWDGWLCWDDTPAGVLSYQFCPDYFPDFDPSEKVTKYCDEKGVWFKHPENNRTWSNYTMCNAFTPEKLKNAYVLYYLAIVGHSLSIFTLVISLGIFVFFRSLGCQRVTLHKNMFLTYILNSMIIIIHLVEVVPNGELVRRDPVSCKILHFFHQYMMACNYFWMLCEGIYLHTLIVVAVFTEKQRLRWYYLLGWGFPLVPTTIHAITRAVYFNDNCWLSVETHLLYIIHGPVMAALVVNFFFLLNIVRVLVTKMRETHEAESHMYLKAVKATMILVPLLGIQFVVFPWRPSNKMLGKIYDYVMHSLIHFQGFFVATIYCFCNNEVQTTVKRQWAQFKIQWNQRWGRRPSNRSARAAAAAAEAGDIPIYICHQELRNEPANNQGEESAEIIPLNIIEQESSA
T1 sequence (O60896 24-148 partner): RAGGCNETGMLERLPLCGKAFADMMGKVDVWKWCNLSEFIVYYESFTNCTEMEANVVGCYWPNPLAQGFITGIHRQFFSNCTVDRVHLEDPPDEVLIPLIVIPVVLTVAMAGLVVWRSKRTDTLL
Experiment: Luciferase assay of amylin derivatives in amylin receptor/CRE-luc CHO cell line
Type: cell-based
Conditions: CHO-K1/Ga15/AMY3 CRE-luc cells, 24 hours incubation, F12 medium containing 10% FBS; read-out: EC50
Protocol: The experiment was intended to detect the activity or efficacy of the amylin derivatives on a human amylin receptor in vitro by luciferase assay.
50 μL of growth medium (F12 medium containing 10% FBS) was added into each well of a white 96-well plate, and the stably transfected amylin/CRE-lue CHO cells were inoculated into the white 96-well plate at a density of about 20,000 cells/well for activity determination.

SMILES	EC50 [nM]
CC[C@H](C)[C@H](NC(=O)[C@@H]1CCCN1C(=O)CNC(=O)[C@H](CC(C)C)NC(=O)[C@H](CC(N)=O)NC(=O)[C@H](CC(N)=O)NC(=O)[C@H](CO)NC(=O)[C@H](CO)NC(=O)[C@H](Cc1c[nH]cn1)NC(=O)[C@H](CCCNC(=N)N)NC(=O)[C@H](CC(C)C)NC(=O)[C@H](Cc1ccccc1)NC(=O)[C@H](CC(=O)O)NC(=O)[C@H](C)NC(=O)[C@H](CC(C)C)NC(=O)[C@H](CCCNC(=N)N)NC(=O)[C@H](CCC(N)=O)NC(=O)[C@@H](NC(=O)[C@H](C)NC(=O)[C@@H]1CSSC[C@H](NC(=O)[C@H](CCCCN)NC(=O)CC[C@H](NC(=O)CCCCCCCCCCCCCCCCCCC(=O)O)C(=O)O)C(=O)N[C@@H](CC(N)=O)C(=O)N[C@@H]([C@@H](C)O)C(=O)N[C@@H](C)C(=O)N[C@@H]([C@@H](C)O)C(=O)N1)[C@@H](C)O)C(=O)N[C@@H](CC(C)C)C(=O)N1CCC[C@H]1C(=O)N1CCC[C@H]1C(=O)N[C@H](C(=O)N[C@@H](CC(N)=O)C(=O)N[C@H](C(=O)NCC(=O)N[C@@H](CO)C(=O)N[C@@H](CC(N)=O)C(=O)N[C@H](C(=O)N1C[C@H](O)C[C@H]1C(N)=O)[C@@H](C)O)C(C)C)[C@@H](C)O [PD069] ({C20 diacid-γGlu}-KCNTATCATQRLADFLRHSSNNLGPILPPTNVGSNT[Hyp]-NH2; disulfide 2-7)	0.039
CC[C@H](C)[C@H](NC(=O)[C@@H]1CCCN1C(=O)[C@H](CCCCNC(=O)CC[C@H](NC(=O)CCCCCCCCCCCCCCCCCCC(=O)O)C(=O)O)NC(=O)[C@H](CC(C)C)NC(=O)[C@H](CC(N)=O)NC(=O)[C@H](CC(N)=O)NC(=O)[C@H](CO)NC(=O)[C@H](CO)NC(=O)[C@H](Cc1c[nH]cn1)NC(=O)[C@H](CCCNC(=N)N)NC(=O)[C@H](CC(C)C)NC(=O)[C@H](Cc1ccccc1)NC(=O)[C@H](CC(=O)O)NC(=O)[C@H](C)NC(=O)[C@H](CC(C)C)NC(=O)[C@H](CCCNC(=N)N)NC(=O)[C@H](CCC(N)=O)NC(=O)[C@@H](NC(=O)[C@H](C)NC(=O)[C@@H]1CSSC[C@H](NC(=O)[C@@H](N)CCN)C(=O)N[C@@H](CC(N)=O)C(=O)N[C@@H]([C@@H](C)O)C(=O)N[C@@H](C)C(=O)N[C@@H]([C@@H](C)O)C(=O)N1)[C@@H](C)O)C(=O)N[C@@H](CC(C)C)C(=O)N1CCC[C@H]1C(=O)N1CCC[C@H]1C(=O)N[C@H](C(=O)N[C@@H](CC(N)=O)C(=O)N[C@H](C(=O)NCC(=O)N[C@@H](CO)C(=O)N[C@@H](CC(N)=O)C(=O)N[C@H](C(=O)N1C[C@H](O)C[C@H]1C(N)=O)[C@@H](C)O)C(C)C)[C@@H](C)O [PD074] (H-[Dab]CNTATCATQRLADFLRHSSNNLK([γGlu-C20 diacid])PILPPTNVGSNT[Hyp]-NH2; disulfide 2-7)	0.066
CC[C@H](C)[C@H](NC(=O)[C@@H]1CCCN1C(=O)CNC(=O)[C@H](CC(C)C)NC(=O)[C@H](CCCCNC(=O)COCCOCCNC(=O)CC[C@H](NC(=O)CCCCCCCCCCCCCCCCCCC(=O)O)C(=O)O)NC(=O)[C@H](CC(N)=O)NC(=O)[C@H](CO)NC(=O)[C@H](CO)NC(=O)[C@H](Cc1c[nH]cn1)NC(=O)[C@H](CCCNC(=N)N)NC(=O)[C@H](CC(C)C)NC(=O)[C@H](Cc1ccccc1)NC(=O)[C@H](CC(=O)O)NC(=O)[C@H](C)NC(=O)[C@H](CC(C)C)NC(=O)[C@H](CCCNC(=N)N)NC(=O)[C@H](CCC(N)=O)NC(=O)[C@@H](NC(=O)[C@H](C)NC(=O)[C@@H]1CSSC[C@H](NC(=O)[C@@H](N)CCCNC(=N)N)C(=O)N[C@@H](CC(N)=O)C(=O)N[C@@H]([C@@H](C)O)C(=O)N[C@@H](C)C(=O)N[C@@H]([C@@H](C)O)C(=O)N1)[C@@H](C)O)C(=O)N[C@@H](CC(C)C)C(=O)N1CCC[C@H]1C(=O)N1CCC[C@H]1C(=O)N[C@H](C(=O)N[C@@H](CC(N)=O)C(=O)N[C@H](C(=O)NCC(=O)N[C@@H](CO)C(=O)N[C@@H](CC(N)=O)C(=O)N[C@H](C(=O)N1C[C@H](O)C[C@H]1C(N)=O)[C@@H](C)O)C(C)C)[C@@H](C)O [PD112] (H-RCNTATCATQRLADFLRHSSNK([AEEA-γGlu-C20 diacid])LGPILPPTNVGSNT[Hyp]-NH2; disulfide 2-7)	0.03
CC[C@H](C)[C@H](NC(=O)[C@@H]1CCCN1C(=O)[C@H](CCCCNC(=O)CC[C@H](NC(=O)CCCCCCCCCCCCCCCCCCC(=O)O)C(=O)O)NC(=O)[C@H](CC(C)C)NC(=O)[C@H](CC(N)=O)NC(=O)[C@H](CC(N)=O)NC(=O)[C@H](CO)NC(=O)[C@H](CO)NC(=O)[C@H](Cc1c[nH]cn1)NC(=O)[C@H](CCCNC(=N)N)NC(=O)[C@H](CC(C)C)NC(=O)[C@H](Cc1ccccc1)NC(=O)[C@H](CC(=O)O)NC(=O)[C@H](C)NC(=O)[C@H](CC(C)C)NC(=O)[C@H](CCCNC(=N)N)NC(=O)[C@H](CCC(N)=O)NC(=O)[C@@H](NC(=O)[C@H](C)NC(=O)[C@@H]1CSSC[C@H](N)C(=O)N[C@@H](CC(N)=O)C(=O)N[C@@H]([C@@H](C)O)C(=O)N[C@@H](C)C(=O)N[C@@H]([C@@H](C)O)C(=O)N1)[C@@H](C)O)C(=O)N[C@@H](CC(C)C)C(=O)N1CCC[C@H]1C(=O)N1CCC[C@H]1C(=O)N[C@H](C(=O)N[C@@H](CC(N)=O)C(=O)N[C@H](C(=O)NCC(=O)N[C@@H](CO)C(=O)N[C@@H](CC(N)=O)C(=O)N[C@H](C(=O)N1C[C@H](O)C[C@H]1C(N)=O)[C@@H](C)O)C(C)C)[C@@H](C)O [PD054] (H-CNTATCATQRLADFLRHSSNNLK([γGlu-C20 diacid])PILPPTNVGSNT[Hyp]-NH2; disulfide 1-6)	0.049
CC[C@H](C)[C@H](NC(=O)[C@@H]1CCCN1C(=O)CNC(=O)[C@H](CC(C)C)NC(=O)[C@H](CC(N)=O)NC(=O)[C@H](CC(N)=O)NC(=O)[C@H](CCCCNC(=O)CC[C@H](NC(=O)CCCCCCCCCCCCCCCCC(=O)O)C(=O)O)NC(=O)[C@H](CO)NC(=O)[C@H](Cc1c[nH]cn1)NC(=O)[C@H](CCCNC(=N)N)NC(=O)[C@H](CC(C)C)NC(=O)[C@H](Cc1ccccc1)NC(=O)[C@H](CC(=O)O)NC(=O)[C@H](C)NC(=O)[C@H](CC(C)C)NC(=O)[C@H](CCCNC(=N)N)NC(=O)[C@H](CCC(N)=O)NC(=O)[C@@H](NC(=O)[C@H](C)NC(=O)[C@@H]1CSSC[C@H](NC(=O)[C@@H](N)CCCNC(=N)N)C(=O)N[C@@H](CC(N)=O)C(=O)N[C@@H]([C@@H](C)O)C(=O)N[C@@H](C)C(=O)N[C@@H]([C@@H](C)O)C(=O)N1)[C@@H](C)O)C(=O)N[C@@H](CC(C)C)C(=O)N1CCC[C@H]1C(=O)N1CCC[C@H]1C(=O)N[C@H](C(=O)N[C@@H](CC(N)=O)C(=O)N[C@H](C(=O)NCC(=O)N[C@@H](CO)C(=O)N[C@@H](CC(N)=O)C(=O)N[C@H](C(=O)N1C[C@H](O)C[C@H]1C(N)=O)[C@@H](C)O)C(C)C)[C@@H](C)O [PD096] (H-RCNTATCATQRLADFLRHSK([γGlu-C18 diacid])NNLGPILPPTNVGSNT[Hyp]-NH2; disulfide 2-7)	0.042
CC[C@H](C)[C@H](NC(=O)[C@@H]1CCCN1C(=O)CNC(=O)[C@H](CC(C)C)NC(=O)[C@H](CC(N)=O)NC(=O)[C@H](CCCCNC(=O)COCCOCCNC(=O)CC[C@H](NC(=O)CCCCCCCCCCCCCCCCC(=O)O)C(=O)O)NC(=O)[C@H](CO)NC(=O)[C@H](CO)NC(=O)[C@H](Cc1c[nH]cn1)NC(=O)[C@H](CCCNC(=N)N)NC(=O)[C@H](CC(C)C)NC(=O)[C@H](Cc1ccccc1)NC(=O)[C@H](CC(=O)O)NC(=O)[C@H](C)NC(=O)[C@H](CC(C)C)NC(=O)[C@H](CCCNC(=N)N)NC(=O)[C@H](CCC(N)=O)NC(=O)[C@@H](NC(=O)[C@H](C)NC(=O)[C@@H]1CSSC[C@H](NC(=O)[C@@H](N)CCCNC(=N)N)C(=O)N[C@@H](CC(N)=O)C(=O)N[C@@H]([C@@H](C)O)C(=O)N[C@@H](C)C(=O)N[C@@H]([C@@H](C)O)C(=O)N1)[C@@H](C)O)C(=O)N[C@@H](CC(C)C)C(=O)N1CCC[C@H]1C(=O)N1CCC[C@H]1C(=O)N[C@H](C(=O)N[C@@H](CC(N)=O)C(=O)N[C@H](C(=O)NCC(=O)N[C@@H](CO)C(=O)N[C@@H](CC(N)=O)C(=O)N[C@H](C(=O)N1C[C@H](O)C[C@H]1C(N)=O)[C@@H](C)O)C(C)C)[C@@H](C)O [PD115] (H-RCNTATCATQRLADFLRHSSK([AEEA-γGlu-C18 diacid])NLGPILPPTNVGSNT[Hyp]-NH2; disulfide 2-7)	0.011
CC[C@H](C)[C@H](NC(=O)[C@@H]1CCCN1C(=O)CNC(=O)[C@H](Cc1ccccc1)NC(=O)[C@H](CC(N)=O)NC(=O)[C@H](CC(N)=O)NC(=O)[C@H](CO)NC(=O)[C@H](CO)NC(=O)[C@H](Cc1c[nH]cn1)NC(=O)[C@@H](NC(=O)[C@H](CC(C)C)NC(=O)[C@H](Cc1ccccc1)NC(=O)[C@H](CC(N)=O)NC(=O)[C@H](C)NC(=O)[C@H](CC(C)C)NC(=O)[C@H](CCCNC(=N)N)NC(=O)[C@H](CCC(N)=O)NC(=O)[C@@H](NC(=O)[C@H](C)NC(=O)[C@@H]1CSSC[C@H](NC(=O)[C@H](CCCCN)NC(=O)CC[C@H](NC(=O)CCCCCCCCCCCCCCCCCCC(=O)O)C(=O)O)C(=O)N[C@@H](CC(N)=O)C(=O)N[C@@H]([C@@H](C)O)C(=O)N[C@@H](C)C(=O)N[C@@H]([C@@H](C)O)C(=O)N1)[C@@H](C)O)C(C)C)C(=O)N[C@@H](CC(C)C)C(=O)N1CCC[C@H]1C(=O)N1CCC[C@H]1C(=O)N[C@H](C(=O)N[C@@H](CC(N)=O)C(=O)N[C@H](C(=O)NCC(=O)N[C@@H](CO)C(=O)N[C@@H](CC(N)=O)C(=O)N[C@H](C(=O)N[C@@H](Cc1ccc(O)cc1)C(N)=O)[C@@H](C)O)C(C)C)[C@@H](C)O [PD156] ({C20 diacid-γGlu}-KCNTATCATQRLANFLVHSSNNFGPILPPTNVGSNTY-NH2; disulfide 2-7 (inferred))	0.029
